Experimental data published in patent US8946257B2, “N-containing heteroaryl derivatives as JAK3 kinase inhibitors” (Vectura Limited, priority 2009, dated 2015).

biological target: T1, catalytic domain of human JAK2 (Homo sapiens, UniProt O60674); assay: Inhibition of JAK2 activity (Z'-Lyte Kinase Assay kit-Tyr 6 Peptide); type: biochemical
T1 construct: the catalytic domain of human JAK2
Protocol: The inhibition of JAK2 kinase activity was determined in 384-well assay microplates using the Z′-Lyte® Kinase Assay kit-Tyr 6 Peptide kit, supplied by Invitrogen (Ref: PV4122), following the manufacturer's instructions.
In a final volume of 10 μL per well, 2.5 μL of the product to be tested dissolved in 4% DMSO (final concentration of the product to be tested, 0.1-10000 nM) was incubated with 0.5 μg/well of the catalytic domain of human JAK2, 2 μM of the substrate peptide Z′-Lyte® Tyr 6 and 16 μM of ATP; all components were dissolved in 50 mM pH 7.5 Hepes buffer, 10 mM Magnesium chloride (II), 1 mM EGTA and 0.01% Brij® 35. The reaction was started by the addition of said 16 μM ATP; after incubation for 1 hour at 25° C., 5 μL of A Z′-Lyte® Tyr 6 development reagent was added and the mixture was incubated for 1 hour at 25° C. Phosphorylation was then quantified in each well using a Safire2® fluorescence microplate reader from Tecan.

T1 sequence (O60674 849-1124 limits assumed): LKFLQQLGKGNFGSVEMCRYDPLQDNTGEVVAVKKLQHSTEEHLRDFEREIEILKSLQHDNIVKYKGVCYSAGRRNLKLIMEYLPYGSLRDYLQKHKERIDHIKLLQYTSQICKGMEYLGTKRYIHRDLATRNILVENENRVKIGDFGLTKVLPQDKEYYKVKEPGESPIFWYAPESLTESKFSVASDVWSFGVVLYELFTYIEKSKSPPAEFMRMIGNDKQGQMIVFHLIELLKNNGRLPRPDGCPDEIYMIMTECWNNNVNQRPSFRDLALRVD

Structure (SMILES) | inhibition at 1 µM
O=c1[nH]c2cnc(-c3cnn4ccccc34)nc2n1C1CCOCC1 [Example 3, 2-(Pyrazolo[1,5-a]pyridin-3-yl)-9-(tetrahydro-2H-pyran-4-yl)-7H-purin-8(9H)-one] | > 50%
CC(C)(C)OC(=O)N1CCC[C@H](n2c(=O)[nH]c3cnc(-c4cnn5ccccc45)nc32)C1 [Example 3b, (S)-tert-butyl 3-(8-oxo-2-(pyrazolo[1,5-a]pyridin3-yl)-7H-purin-9(8H)-yl)piperidine-1-carboxylate] | > 50%
O=c1[nH]c2cnc(-c3cnn4ccccc34)nc2n1C1CCOc2c(F)cccc21 (stereo not drawn) [Example 3d, 9-(8-fluorochroman-4-yl)-2-(pyrazolo[1,5-a]pyridin-3-yl)-7H-purin-8(9H)-one] | > 50%
COC(=O)[C@H](C)n1c(=O)[nH]c2cnc(-c3cnn4ccccc34)nc21 [Example 3e, methyl (2S)-2-(8-oxo-2-(pyrazolo[1,5-a]pyridin-3-yl)-7,8-dihydro-9H-purin-9-yl)propanoate] | > 50%
Cn1c(=O)n(C2CCOc3c(F)cccc32)c2nc(-c3cnn4ccccc34)ncc21 (stereo not drawn) [Example 4c, 9-(8-fluorochroman-4-yl)-7-methyl-2-(pyrazolo[1,5-a]pyridin-3-yl)-7H-purin-8(9H)-one] | > 50%
Cn1c(=O)n([C@H]2CCCN(C(=O)OC(C)(C)C)C2)c2nc(-c3cnn4ccccc34)ncc21 [Example 5, (S)-tert-Butyl 3-(7-methyl-8-oxo-2-(pyrazolo[1,5-a]pyridine-3-yl)-7H-purin-9(8H)-yl)piperidine-1-carboxylate] | > 50%
Cn1c(=O)n(C2CCOCC2)c2nc(-c3cnn4ccccc34)ncc21 [Example 5a, 7-methyl-2-(pyrazolo[1,5-a]pyridin-3-yl)-9-(tetrahydro-2H-pyran-4-yl)-7H-purin-8(9H)-one] | > 50%
Cn1c(=O)n(C2CCOCC2)c2nc(-c3cnn4ccc(C#N)cc34)ccc21 [Example 5b, 3-(1-methyl-2-oxo-3-(tetrahydro-2H-pyran-4-yl)-2,3-dihydro-1H-imidazo[4,5-b]pyridin-5-yl)pyrazolo[1,5-a]pyridine-5-carbonitrile] | > 50%
Cn1c(=O)n(C2CCC(F)(F)CC2)c2nc(-c3cnn4ccc(C#N)cc34)ncc21 [Example 5e, 3-(9-(4,4-difluorocyclohexyl)-7-methyl-8-oxo-8,9-dihydro-7H-purin-2-yl)pyrazolo[1,5-a]pyridine-5-carbonitrile] | > 50%
Cn1c(=O)n(C2CCS(=O)(=O)C2)c2nc(-c3cnn4ccc(C#N)cc34)ncc21 (stereo not drawn) [Example 5f, 3-(9-(1,1-dioxotetrahydrothien-3-yl)-8,9-dihydro-7-methyl-8-oxopurin-2-yl)pyrazolo[1,5-a]pyridine-5-carbonitrile] | > 50%
Cn1c(=O)n(Cc2ccccc2F)c2nc(-c3cnn4ccc(C#N)cc34)ncc21 [Example 5h, 3-(9-(2-fluorobenzyl)-7-methyl-8-oxo-8,9-dihydro-7H-purin-2-yl)pyrazolo[1,5-a]pyridine-5-carbonitrile] | > 50%
CC(=O)N1CCC(n2c(=O)n(C)c3cnc(-c4cnn5ccc(C(F)(F)F)cc45)nc32)CC1 [Example 5i, 9-(1-acetylpiperidin-4-yl)-7-methyl-2-(5-(trifluoromethyl)pyrazolo[1,5-a]pyridin-3-yl)-7H-purin-8(9H)-one] | > 50%
N#CCC(=O)N1CCC[C@H](n2c(=O)[nH]c3ccc(-c4cnn5ccccc45)nc32)C1 [Example 7p, (S)-3-oxo-3-(3-(2-oxo-5-(pyrazolo[1,5-a]pyridin-3-yl)-1H-imidazo[4,5-b]pyridin-3(2H)-yl)piperidin-1-yl)propanenitrile] | > 50%
CC(C)C(=O)N1CCC[C@H](n2c(=O)[nH]c3ccc(-c4cnn5ccccc45)nc32)C1 [Example 8d, (S)-3-(1-isobutyrylpiperidin-3-yl)-5-(pyrazolo[1,5-a]pyridin-3-yl)-1H-imidazo[4,5-b]pyridin-2(3H)-one] | > 50%
CS(=O)(=O)N1CCC[C@H](n2c(=O)[nH]c3cnc(-c4cnn5ccccc45)nc32)C1 [Example 9a, (S)-9-(1-(methylsulfonyl)piperidin-3-yl)-2-(pyrazolo[1,5-a]pyridin-3-yl)-7H-purin-8(9H)-one] | > 50%
CCCS(=O)(=O)N1CCC[C@H](n2c(=O)[nH]c3cnc(-c4cnn5ccc(C#N)cc45)nc32)C1 [Example 9b, (S)-3-(8-oxo-9-(1-(propylsulfonyl)piperidin-3-yl)-8,9-dihydro-7H-purin-2-yl)pyrazolo[1,5-a]pyridine-5-carbonitrile] | > 50%
N#Cc1ccn2ncc(-c3ncc4[nH]c(=O)n([C@H]5CCCN(S(=O)(=O)CC(F)(F)F)C5)c4n3)c2c1 [Example 9c, (S)-3-(8-oxo-9-(1-(2,2,2-trifluoroethylsulfonyl)piperidin-3-yl)-8,9-dihydro-7H-purin-2-yl)pyrazolo[1,5-a]pyridine-5-carbonitrile] | > 50%
Cn1c(=O)n([C@H]2CCCN(S(C)(=O)=O)C2)c2nc(-c3cnn4ccccc34)ccc21 [Example 9f, (S)-1-methyl-3-(1-(methylsulfonyl)piperidin-3-yl)-5-(pyrazolo[1,5-a]pyridin-3-yl)-1H-imidazo[4,5-b]pyridin-2(3H)-one] | > 50%
Cc1ccn2ncc(-c3ncc4[nH]c(=O)n([C@H]5CCCN(S(C)(=O)=O)C5)c4n3)c2c1 [Example 9g, (S)-2-(5-methylpyrazolo[1,5-a]pyridin-3-yl)-9-(1-(methylsulfonyl)piperidin-3-yl)-7H-purin-8(9H)-one] | > 50%
N#Cc1ccn2ncc(-c3ncc4[nH]c(=O)n([C@H]5CCCN(C(=O)CO)C5)c4n3)c2c1 [Example 10a] | > 50%
CC(C)(O)C(=O)N1CCC[C@H](n2c(=O)[nH]c3cnc(-c4cnn5ccc(C#N)cc45)nc32)C1 [Example 10b] | > 50%
CCC(CC)C(=O)N1CCC[C@H](n2c(=O)[nH]c3cnc(-c4cnn5ccc(C#N)cc45)nc32)C1 [Example 10e] | > 50%
N#Cc1ccn2ncc(-c3ncc4[nH]c(=O)n([C@H]5CCCN(C(=O)CC(F)(F)F)C5)c4n3)c2c1 [Example 10h] | > 50%

Structure (SMILES) | inhibition at 1 µM
CCC(=O)N1CCC[C@H](n2c(=O)[nH]c3cnc(-c4cnn5ccc(C)cc45)nc32)C1 [Example 10i] | > 50%
COCC(=O)N1CCC[C@H](n2c(=O)n(C(=O)COC)c3cnc(-c4cnn5ccc(C)cc45)nc32)C1 [Example 10k] | > 50%
CC(=O)N1CCC[C@H](n2c(=O)[nH]c3cnc(-c4cnn5ccc(C)cc45)nc32)C1 [Example 10l] | > 50%
Cc1ccn2ncc(-c3ncc4[nH]c(=O)n([C@H]5CCCN(C(=O)CO)C5)c4n3)c2c1 [Example 10m] | > 50%
N#Cc1ccn2ncc(-c3ncc4[nH]c(=O)n([C@H]5CCCN(C(=O)C6CC6)C5)c4n3)c2c1 [Example 10n] | > 50%
CCNC(=O)[C@@H](C)n1c(=O)[nH]c2cnc(-c3cnn4ccc(C#N)cc34)nc21 [Example 15f] | > 50%
C[C@H](C(=O)N(C)C)n1c(=O)[nH]c2cnc(-c3cnn4ccc(C#N)cc34)nc21 [Example 15h] | > 50%
C[C@@H](C(=O)NCC(F)(F)F)n1c(=O)[nH]c2cnc(-c3cnn4ccc(C#N)cc34)nc21 [Example 15i] | > 50%
C[C@@H](C(=O)N(C)C)n1c(=O)[nH]c2cnc(-c3cnn4ccccc34)nc21 [Example 15k] | > 50%
COCCn1c(=O)n(C2CCOCC2)c2nc(-c3cnn4ccc(C#N)cc34)ncc21 [Example 16, 3-(7-(2-Methoxyethyl)-8-oxo-9-(tetrahydro-2H-pyran-4-yl)-8,9-dihydro-7H-purin-2-yl)pyrazolo[1,5-a]pyridine-5-carbonitrile] | > 50%
CN(C)CCn1c(=O)n([C@H]2CCCN(C(=O)CC#N)C2)c2nc(-c3cnn4ccc(C#N)cc34)ncc21 [Example 16a] | > 50%
Cc1nc2cnc(-c3cnn4ccc(C#N)cc34)nc2n1C1CCOCC1 [Example 18a] | > 50%
Cc1nc2cnc(-c3cnn4ccc(C#N)cc34)nc2n1C1CCC(F)(F)CC1 [Example 18b] | > 50%
N#Cc1ccn2ncc(-c3ccc4ncn(C5CCOCC5)c4n3)c2c1 [Example 19, 3-(3-(Tetrahydro-2H-pyran-4-yl)-3H-imidazo[4,5-b]pyridin-5-yl)pyrazolo[1,5-a]pyridine-5-carbonitrile] | > 50%
c1csc(-c2nc3cnc(-c4cnn5ccccc45)nc3n2C2CCOCC2)c1 [Example 21k] | > 50%
c1ccn2ncc(-c3ncc4nc(C5CC5)n(C5CCOCC5)c4n3)c2c1 [Example 23d] | > 50%
Cn1c(=O)n([C@H]2CCCN(C(=O)C(C)(C)C)C2)c2nc(-c3cnn4ccccc34)ccc21 [Example 24a] | > 50%
CCC(=O)N1CCC[C@H](n2c(=O)n(C)c3ccc(-c4cnn5ccccc45)nc32)C1 [Example 24c] | > 50%
CCOC(=O)N1CCC[C@H](n2c(=O)[nH]c3cnc(-c4cnn5ccc(C#N)cc45)nc32)C1 [Example 26a] | > 50%
CC(C)NC(=O)N1CCC[C@H](n2c(=O)[nH]c3cnc(-c4cnn5ccc(C#N)cc45)nc32)C1 [Example 26c] | > 50%
CC(C)(C)NC(=O)N1CCC[C@H](n2c(=O)[nH]c3cnc(-c4cnn5ccc(C#N)cc45)nc32)C1 [Example 26d] | > 50%
CCOC(=O)n1c(=O)n([C@H]2CCCN(C(=O)CC#N)C2)c2nc(-c3cnn4ccccc34)ncc21 [Example 26e] | > 50%
